Assay [1] addresses T1, full length human estrogen receptor a (Homo sapiens, UniProt P03372).
T1 construct: purified, full-length human estrogen receptor a from Invitrogen; purchased Invitrogen
T1 sequence (P03372 1-595): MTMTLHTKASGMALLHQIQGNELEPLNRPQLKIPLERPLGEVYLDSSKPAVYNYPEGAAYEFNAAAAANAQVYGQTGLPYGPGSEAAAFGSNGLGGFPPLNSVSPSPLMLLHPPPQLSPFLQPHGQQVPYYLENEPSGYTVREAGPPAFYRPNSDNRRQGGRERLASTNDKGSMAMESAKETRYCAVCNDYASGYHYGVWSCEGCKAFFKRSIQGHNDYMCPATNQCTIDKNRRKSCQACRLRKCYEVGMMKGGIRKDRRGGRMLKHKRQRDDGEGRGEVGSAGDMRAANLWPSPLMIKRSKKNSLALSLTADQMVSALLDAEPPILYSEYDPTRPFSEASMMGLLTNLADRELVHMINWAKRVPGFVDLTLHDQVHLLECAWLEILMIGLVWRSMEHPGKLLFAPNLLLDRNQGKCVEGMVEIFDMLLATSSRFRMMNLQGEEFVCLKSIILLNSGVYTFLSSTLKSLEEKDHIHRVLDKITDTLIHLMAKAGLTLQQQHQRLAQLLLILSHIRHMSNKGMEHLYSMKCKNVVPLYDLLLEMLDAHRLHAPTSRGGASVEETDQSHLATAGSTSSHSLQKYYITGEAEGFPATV
Put plainly: Competitive radiometric binding assay (RBA), tritiated estradiol tracer. The note with it: relative to estradiol = 100; average SD of 2-3 determinations. The protocol: Tritiated estradiol was obtained from Perkin Elmer and purified, full-length human estrogen receptor a from Invitrogen.
Competitive radiometric binding assays (RBA) were performed on 96-well microtiter filter plates (Millipore), using full length human estrogen receptor a, with tritiated estradiol as tracer, as previously described (Carlson K E, Choi I, Gee A, Katzenellenbogen B S, Katzenellenbogen J A. Altered ligand binding properties and enhanced stability of a constitutively active estrogen receptor: evidence that an open pocket conformation is required for ligand interaction. Biochemistry 1997, 36(48), 14897-14905). After incubation on ice for 18-24 h, ERα-bound tracer was absorbed onto hydroxyapatite (BioRad), washed with buffer, and measured by scintillation counting. RBA values are the average SD of 2-3 determinations.

Assay [2] can be described thus: Cell proliferation assay (WST-1), 6-day exposure. The note with it: 144 h, read-out: Antiproliferation IC50. It is filed as cell-based. The protocol:
Cell proliferation assay: WST-1 assay (Roche, Basel, Switzerland) was used to quantify cell viability after a 6-day exposure to compounds, as described in Gong et al. Mol. Cell. Endocrinol. 2016, 437, 190-200. Absorbance was measured at 450 nm using a VICTOR X5 PerkinElmer 2030 Multilabel Plate Reader, and cell proliferation values represent signal from compound-treated samples relative to vehicle-treated controls. All assays were performed in triplicate, and the values shown are the average SD of 2-3 independent experiments.

For assay [3], the target named is T2, HA-ERα wild type (Homo sapiens, UniProt P03372).
T2 construct: HA; expressed in transfected cells
T2 sequence (P03372 1-595): T1 sequence (P03372 1-595)
Put plainly: Luciferase assay, overexpressed ER (3×-ERE-TATA-Luciferase reporter). It counts as cell-based. The note with it: compound concentration 1 μM, 24 hours; read-out: Overexpressed ER (% Inhibition) WT. The method, then:
(§1) Luciferase assays were performed to determine the efficacy of the example compounds at inhibiting ER or its mutants' ability to activate transcription of genes.
(§2) Cells were plated at a density of 0.15×10^6 per well of 24 well plates one day prior to transfection. Cells were transfected with 125 ng (per well) of HA-ERα wild type or mutants, 315 ng (per well) of 3×-ERE-TATA-Luciferase reporter and 50 ng (per well) of pRL-TK Renilla Luciferase plasmid, using Xtremegene (Roche). The cells were treated with the various compounds or Fulvestrant at the indicated doses a day after transfection for 24 hours and luciferase activities were determined using the Dual-Luciferase® Reporter Assay System (Promega) according to manufacturer's instructions. Luciferase bioluminescence measurements were performed with the Veritas™ Microplate Luminometer (Promega). All experiments were conducted in triplicate and the Firefly luciferase activity was normalized with the Renilla luciferase activity of each sample.
On the technique in general: In a reporter assay the amount or activity of a reporter protein is the signal.

For assay [4], the target named is T3, HA-ERα Y537S (Homo sapiens, UniProt P03372, Y537S).
T3 construct: HA; expressed in transfected cells
T3 sequence (P03372 1-595 Y537S): T1 sequence (P03372 1-595) with Y537S
Described as above. The conditions noted are these: compound concentration 1 μM, 24 hours. It is filed as cell-based. The protocol:
as §1, §2

In assay [5] the target is T4, HA-ERα L536R (Homo sapiens, UniProt P03372, L536R).
T4 construct: HA; expressed in transfected cells
T4 sequence (P03372 1-595 L536R): T1 sequence (P03372 1-595) with L536R
The assay is described as above. It counts as cell-based. The conditions noted are these: compound concentration 1 μM, 24 hours. The protocol:
as §1, §2

Assay [6] concerns the target T5, HA-ERα D538G (Homo sapiens, UniProt P03372, D538G).
T5 construct: HA; expressed in transfected cells
T5 sequence (P03372 1-595 D538G): T1 sequence (P03372 1-595) with D538G
Described as above. It is filed as cell-based. The note with it: compound concentration 1 μM, 24 hours. The method, then: as §1, §2

Each structure is given as a SMILES string. Substitutions are numbered along the chain they refer to.

Broadly, the inhibition is the change of the read-out against control, counted positive when it falls.

Regarding `CC(C)C[C@H](NC(=O)OC(C)(C)C)C(=O)NCCCCOc1ccc(C(=C2C3CC4CC(C3)CC2C4)c2ccc(O)cc2)cc1` [Example 2, (S)-tert-Butyl (1-((4-(4-(adamantan-2-ylidene(4-hydroxyphenyl)methyl)-phenoxy)butyl)amino)-4-methyl-1-oxopentan-2-yl)carbamate], the “RBA (estradiol = 100)” value in assay [1] turned out to be 14 ± 1. Moreover, the IC50 in assay [2] was 36 nM.

Regarding `O=C(NCCOc1ccc(C(=C2C3CC4CC(C3)CC2C4)c2ccc(O)cc2)cc1)C12CC3CC(CC(C3)C1)C2` [Example 4, N-(2-(4-(Adamantan-2-ylidene(4-hydroxyphenyl)methyl)phenoxy)ethyl)-adamantane-1-carboxamide], the “RBA (estradiol = 100)” value in assay [1] turned out to be 21 ± 6. Moreover, in assay [2], the IC50 turned out to be 17 nM.

For the compound `CC(C)(C)OC(=O)N[C@@H](Cc1ccccc1)C(=O)NCCCCOc1ccc(C(=C2C3CC4CC(C3)CC2C4)c2ccc(O)cc2)cc1` [Example 3, (S)-tert-Butyl(1-((4-(4-(adamantan-2-ylidene(4-hydroxyphenyl)methyl)-phenoxy)butyl)amino)-1-oxo-3-phenylpropan-2-yl)carbamate], the “RBA (estradiol = 100)” value in assay [1] came out at 14 ± 4. For the same compound, the IC50 in assay [2] was found to be 7 nM.

Take `O=C(NCCCCOc1ccc(C(=C2CCCCC2)c2ccc(O)cc2)cc1)C1CCC1` [Example 24, N-(4-(4-(Cyclohexylidene(4-hydroxyphenyl)methyl)phenoxy)-butyl)cyclobutanecarboxamide]: the inhibition at 1 µM in assay [3] is -83%; in assay [4], -160%; in assay [5], -75%; in assay [6] it was -7%.

For `O=C(NCCCCOc1ccc(Oc2c(-c3ccc(O)cc3)sc3cc(O)ccc23)cc1)C1CC(F)(F)C1` [Example 29, 3,3-Difluoro-N-(4-(4-((6-hydroxy-2-(4-hydroxyphenyl)benzo[b]thiophen-3-yl)oxy)phenoxy)butyl)cyclobutanecarboxamide], the inhibition at 1 µM in assay [3] turned out to be 39%; in assay [4] it was 1%; in assay [5], 90%; in assay [6] it was 73%.

Turning to `O=C(NCCCCOc1ccc(C(=C2CCCCC2)c2ccc(O)cc2)cc1)C1CCCCC1` [Example 23, N-(4-(4-(Cyclohexylidene(4-hydroxyphenyl)methyl)phenoxy)butyl)-cyclohexanecarboxamide], the inhibition at 1 µM in assay [3] was -25%; in assay [4] it was -169%; in assay [5], 43%; in assay [6], 0%.

Regarding `O=C(NCCCCOc1ccc(Oc2c(-c3ccc(O)cc3)sc3cc(O)ccc23)cc1)C1CCC1` [Example 28, N-(4-(4-((6-Hydroxy-2-(4-hydroxyphenyl)benzo[b]thiophen-3-yl)oxy)phenoxy)butyl)cyclobutanecarboxamide], the inhibition at 1 µM in assay [3] is 13%; in assay [4], -64%; in assay [5] it was 43%; in assay [6] it was 60%.

For the compound `O=C(NCCCOc1ccc(C(=C2C3CC4CC(C3)CC2C4)c2ccc(O)cc2)cc1)C12CC3CC(CC(C3)C1)C2` [Example 5, N-(3-(4-(Adamantan-2-ylidene(4-hydroxyphenyl)methyl)phenoxy)propyl)-adamantane-1-carboxamide], in assay [1], the “RBA (estradiol = 100)” value was found to be 26 ± 6. Also, the IC50 in assay [2] worked out at 9 nM.

The values above are taken from patent US11667621B2, “Antiestrogen compounds” (STEVENS INSTITUTE OF TECHNOLOGY, priority 2018, dated 2023).
